Assays:
Type in all cases: in vivo
Pharbitis purpurea = test: Post-emergence herbicidal action against PHBPU; conditions: 20 g a.i./ha
Protocol: (§1) Post-Emergence Herbicidal Action Against Harmful Plants and Crop Plant Compatibility Seeds of monocotyledonous and dicotyledonous weeds and crop plants are placed in sandy loam in plastic or wood-fibre pots, covered with soil and cultivated in a greenhouse under controlled growth conditions. 2 to 3 weeks after sowing, the test plants are treated at the one-leaf stage. The compounds of the invention, formulated in the form of wettable powders (WP) or as emulsion concentrates (EC), are then sprayed onto the green parts of the plants as aqueous suspension or emulsion with addition of 0.5% additive at a water application rate of 600 l/ha (converted). After the test plants have been kept in the greenhouse under optimum growth conditions for about 3 weeks, the activity of the preparations is rated visually in comparison to untreated controls. For example, 100% activity=the plants have died, 0% activity=like control plants. [table]

Avena fatua = test: Post-emergence herbicidal action against AVEFA; conditions: visual rating about 3 weeks after treatment
Protocol: as §1

Lolium rigidum = test: Post-emergence herbicidal action against LOLRI; conditions: visual rating about 3 weeks after treatment
Protocol: as §1

Alopecurus myosuroides = test: Post-emergence herbicidal action against ALOMY; conditions: visual rating about 3 weeks after treatment
Protocol: as §1

Amaranthus retroflexus = test: Post-emergence herbicidal action against AMARE
Protocol: as §1

Abutilon theophrasti = test: Post-emergence herbicidal action against ABUTH; conditions: visual rating about 3 weeks after treatment
Protocol: as §1

Matricaria inodora = test: Post-emergence herbicidal action against MATIN; conditions: 20 g a.i./ha
Protocol: as §1

Echinochloa crus-galli = test: Post-emergence herbicidal action against ECHCG; conditions: visual rating about 3 weeks after treatment
Protocol: as §1

Veronica persica = test: Post-emergence herbicidal action against VERPE
Protocol: as §1

Setaria viridis = test: Post-emergence herbicidal action against SETVI; conditions: visual rating about 3 weeks after treatment
Protocol: as §1

DIGSA = test: Post-emergence herbicidal action against DIGSA; conditions: visual rating about 3 weeks after treatment
Protocol: as §1, with “plants.” for “plants. [table]”

Polygonum convolvulus = test: Post-emergence herbicidal action against POLCO
Protocol: as §1

Hordeum murinum = test: Post-emergence herbicidal action against HORMU
Protocol: as §1

Viola tricolor = test: Post-emergence herbicidal action against VIOTR
Protocol: as §1

Stellaria media = test: Post-emergence herbicidal action against STEME
Protocol: as §1

SMILES	Herbicidal action against [%] PHBPU (Pharbitis purpurea) [%]	Herbicidal action against [%] AVEFA (Avena fatua; 20 g a.i./ha) [%]	Herbicidal action against [%] LOLRI (Lolium rigidum; 20 g a.i./ha) [%]	Herbicidal action against [%] ALOMY (Alopecurus myosuroides; 20 g a.i./ha) [%]	Herbicidal action against [%] AMARE (Amaranthus retroflexus; 20 g a.i./ha) [%]	Herbicidal action against [%] ABUTH (Abutilon theophrasti; 20 g a.i./ha) [%]	Herbicidal action against [%] MATIN (Matricaria inodora) [%]	Herbicidal action against [%] ECHCG (Echinochloa crus-galli; 20 g a.i./ha) [%]	Herbicidal action against [%] VERPE (Veronica persica; 20 g a.i./ha) [%]	Herbicidal action against [%] SETVI (Setaria viridis; 20 g a.i./ha) [%]	Herbicidal action against [%] DIGSA (DIGSA; 20 g a.i./ha) [%]	Herbicidal action against [%] POLCO (Polygonum convolvulus; 20 g a.i./ha) [%]	Herbicidal action against [%] LOLRI (Lolium rigidum; 80 g a.i./ha) [%]	Herbicidal action against [%] ALOMY (Alopecurus myosuroides; 80 g a.i./ha) [%]	Herbicidal action against [%] VERPE (Veronica persica; 80 g a.i./ha) [%]	Herbicidal action against [%] DIGSA (DIGSA; 80 g a.i./ha) [%]	other results
COC1(C(=O)NC2C=CC(C(=O)OCCSC)C2)CC(c2cc(F)cc(F)c2)=NO1 (stereo not shown) [Example I-19]	80	90	90	80	80	80	80	90	90	90	90	80	–	–	–	–	–
COC1(C(=O)NC2C=CC(C(=O)OCCSC(=O)N(C)C)C2)CC(c2cc(F)cc(F)c2)=NO1 (stereo not shown) [Example I-24]	80	90	90	80	90	80	80	90	100	90	80	80	–	–	–	–	–
CC(C)CSCCOC(=O)C1C=CC(NC(=O)C2(C)CC(c3cc(F)cc(F)c3)=NO2)C1 (stereo not shown) [Example I-08]	90	90	90	100	90	90	80	90	80	90	90	90	–	–	–	–	–
CSCCOC(=O)C1C=CC(NC(=O)C2(C3CC3)CC(c3cc(F)cc(F)c3)=NO2)C1 (stereo not shown) [Example I-30]	–	90	90	–	–	–	–	–	80	–	80	–	90	90	90	90	Herbicidal action against [%] HORMU (Hordeum murinum; 20 g a.i./ha): 90%; Herbicidal action against [%] HORMU (Hordeum murinum; 80 g a.i./ha): 90%; Herbicidal action against [%] AVEFA (Avena fatua; 80 g a.i./ha): 90%; Herbicidal action against [%] VIOTR (Viola tricolor; 80 g a.i./ha): 80%; Herbicidal action against [%] AMARE (Amaranthus retroflexus; 80 g a.i./ha, visual rating about 3 weeks after treatment): 80%; Herbicidal action against [%] SETVI (Setaria viridis; 80 g a.i./ha): 80%; Herbicidal action against [%] POLCO (Polygonum convolvulus; 80 g a.i./ha): 80%
CC(C)SCCOC(=O)C1C=CC(NC(=O)C2(C)CC(c3cc(F)cc(F)c3)=NO2)C1 (stereo not shown) [Example I-10]	80	90	100	100	90	90	80	90	90	90	90	90	–	–	–	–	–
CSCCOC(=O)C1C=CC(NC(=O)C2(C)CC(c3cccc(C#N)c3)=NO2)C1 (stereo not shown) [Example I-40]	–	–	80	–	–	80	–	80	80	–	–	–	80	80	80	80	Herbicidal action against [%] VIOTR (Viola tricolor; 20 g a.i./ha): 80%; Herbicidal action against [%] ABUTH (Abutilon theophrasti; 80 g a.i./ha): 80%; Herbicidal action against [%] STEME (Stellaria media; 20 g a.i./ha): 80%; Herbicidal action against [%] STEME (Stellaria media; 80 g a.i./ha): 80%; Herbicidal action against [%] ECHCG (Echinochloa crus-galli; 80 g a.i./ha): 80%
